Read-outs that look alike come from different tables or passages of the source.
Tests used:
DENV2 replicon = assay: DENV-2 Huh-7 Rep EC50 (replicon luminescence); type: cell-based; details: Dengue virus, DENV2, Huh-7, 48 h, read-out: DENV-2 Huh-7 Rep EC50
How it was run: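 EC50 derived from luminescence dose-response, normalised to DMSO-only 0% inhibition wells, after 1.5 h with EnduRen substrate. Compounds were first exposed for 48 h at 37° C to DENV2 replicon Huh-7 cells (5,000/well).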

HRV16 = HRV16 HELA EC50 (cytopathic effect in H1-HeLa cells); type: cell-based; details: 96 h, read-out: HRV16 HELA EC50
How it was run: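 Read-out is luminescent cell viability (CellTiter-Glo) after 96 h of infection at 33 °C, scaled between uninfected and infected-untreated wells. Before infection with titrated virus, compounds went onto H1-HeLa cells as triplicate 3-fold dilution series.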

[1] = HEp-2 CC50 (cytotoxicity, Cell-Titer Glo); type: cell-based; details: human; uninfected HEp-2 cells, 4-5 days
Description: The same protocol as for the determination of antiviral activity is used for the measurement of compound cytotoxicity except that the cells are not infected with RSV. Instead, an uninfected cell mixture at the same density is added at 20 ul/well to plates containing prediluted compounds, also at 100 nL/sample. Assay plates are then incubated for 4 days followed by a cell viability test using the same CellTiter Glo reagent addition and measurement of luminescent readouts.

RSV A2 = assay: RSV NHBE EC50 (RSV A2 antiviral assay in normal human bronchial epithelial cells); type: cell-based; details: human respiratory syncytial virus, NHBE, 96 h, read-out: RSV NHBE EC50
[2] = MT4 CC50 (cytotoxicity, Cell-Titer Glo); details: human
Description: (§1) HEp-2 (1.5×10^3 cells/well) and MT-4 (2×10^3 cells/well) cells were plated in 384-well plates and incubated with the appropriate medium containing 3-fold serially diluted compound ranging from 15 nM to 100,000 nM. Cells were cultured for 4-5 days at 37° C. Following the incubation, the cells were allowed to equilibrate to 25° C., and cell viability was determined by adding Cell-Titer Glo viability reagent. The mixture was incubated for 10 min, and the luminescence signal was quantified using an Envision plate reader. Untreated cell and cells treated at 2 μM puromycin (Sigma, St. Louis, MO) serve as 100% and 0% cell viability control, respectively.

HELA CC50 (cytotoxicity) = details: human, HeLa cells
RSV strain A2 = assay: RSV HEp-2 EC50 (infectious cytopathic cell protection assay); type: cell-based; details: human respiratory syncytial virus, HEp-2, 96 h, read-out: RSV HEp-2 EC50
How it was run: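 Percent inhibition of RSV-induced cytopathic effect came from remaining cell viability (CellTiter-Glo luminescence) after 4 days at 37° C. Compounds in 3-fold serial dilutions were exposed to an infectious mix of titered A2 virus and HEp-2 cells at 50,000/ml, with 0% and 100% inhibition control standards.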

in vitro [3] = details: human
in vitro [4] = details: human; remark: listed apart in the source
Description: as §1

Row | Structure (SMILES) | EC50 (DENV2 replicon) | EC50 (HRV16) | CC50 [1] | EC50 (RSV A2) | CC50 [2] | CC50 (HELA CC50 (cytotoxicity)) | EC50 (RSV strain A2) | CC50 (in vitro [3]) | EC50 (DENV2 replicon; Huh-7 replicon cells, 48 hours) | EC50 (HRV16; H1-HeLa cells, 33° C.) | CC50 (in vitro [4]) | EC50 (RSV A2; NHBE cells, RSV A2, 4 days) | EC50 (RSV strain A2; HEp-2 cells, RSV A2, 4 days)
1 | CCOC(=O)c1ccccc1OP1(=O)OC[C@@]2(C#N)O[C@@H](c3ccc4c(N)ncnn34)[C@H](OC(=O)CC)[C@@H]2O1 (some centres unmarked) [Example 230] | > 50 µM | 11.5 µM | > 50 µM | > 5 µM | > 50 µM | > 50 µM | 1.65 µM | – | – | – | – | – | –
2 | CC(C)OC(=O)[C@H](C)N[P@](=O)(OC[C@@]1(C#N)O[C@@H](c2ccc3c(N)ncnn23)[C@H](OC(=O)C(C)(C)C)[C@@H]1O)Oc1ccccc1 (single isomer, unassigned) [Example 238] | – | – | > 50 µM | – | – | – | – | > 50 µM | 9.71 µM | 0.731 µM | 45 µM | 0.041 µM | 0.091 µM
